Test results from patent US7739055B2, “Methods and systems for generating and evaluating peptides” (priority 2005, dated 2010).
Converted amounts (≈) assume the structure as drawn. Read-outs that look alike come from different tables or passages of the source. Where a SMILES comes first, the peptide text is derived from it.

Tests used:
[1] = system: Smith Diffuse strain of Staphylococcus aureus
[2] = system: Escherichia coli
[3] = system: B. cereus
[4] = system: Sterne strain of Bacillus anthracis
[5] = first concentration that prohibits growth by OD at 24 hours, Table 1

Compound	MIC E. coli [2, 5]	MIC B. cereus [3, 5]	further results
CC(C)C[C@H](NC(=O)[C@H](CC(C)C)NC(=O)[C@H](CO)NC(=O)[C@H](CCCCN)NC(=O)[C@H](CC(C)C)NC(=O)[C@@H]1CCCN1C(=O)[C@H](C)NC(=O)[C@H](Cc1ccccc1)NC(=O)[C@@H]1CCCN1C(=O)[C@H](CC(C)C)NC(=O)[C@@H](NC(=O)[C@H](CCCCN)NC(=O)[C@H](CCCCN)NC(=O)[C@@H](NC(=O)[C@H](CO)NC(=O)[C@@H](N)C(C)C)C(C)C)C(C)C)C(=O)N[C@@H](CO)C(=O)N[C@@H](Cc1ccccc1)C(=O)N[C@@H](C)C(=O)N[C@@H](Cc1ccccc1)C(=O)O [Shuffled 63] (H-VSVKKVLPFAPLKSLLSFAF-OH; N-terminus and C-terminus assumed)			MIC S. aureus ([1]; Smith Diffuse strain, Table 1): + (MIC greater than 256 ug/mL); MIC E. coli ([2]; 24 h): 256 µg/mL (≈ 117 µM); MIC B. cereus ([3]; 24 h): 256 µg/mL (≈ 117 µM)
CC[C@H](C)[C@H](NC(=O)[C@H](CCCCN)NC(=O)[C@H](CCCCN)NC(=O)[C@H](Cc1ccccc1)NC(=O)[C@H](CC(C)C)NC(=O)[C@H](CCCCN)NC(=O)[C@H](Cc1c[nH]c2ccccc12)NC(=O)[C@@H](N)CCCCN)C(=O)NCC(=O)N[C@@H](C)C(=O)N[C@H](C(=O)N[C@@H](CC(C)C)C(=O)N[C@@H](CCCCN)C(=O)N[C@H](C(=O)N[C@@H](CC(C)C)C(N)=O)C(C)C)C(C)C [Cec Mel Hyb, KWKLFKKIGAVLKVL-NH2] (H-KWKLFKKIGAVLKVL-NH2)			MIC S. aureus ([1]; Smith Diffuse strain of): 4 µg/mL (≈ 2.26 µM); MIC B. anthracis [4]: 16 µg/mL (≈ 9.04 µM); MIC B. cereus ([3]; 24 h): 8 µg/mL (≈ 4.52 µM)
KIVKVITVKSISPASLVPVF [Shuffled 83]	++ (MIC greater than 128 ug/mL, not sufficiently soluble to test as 256 ug/mL)	++ (MIC greater than 128 ug/mL, not sufficiently soluble to test as 256 ug/mL)	
CC[C@H](C)[C@H](NC(=O)[C@H](Cc1ccccc1)NC(=O)CN)C(=O)NCC(=O)N[C@@H](CCCCN)C(=O)N[C@@H](CC(C)C)C(=O)N[C@@H](C)C(=O)N[C@@H](CO)C(=O)N[C@@H](CCCCN)C(=O)N[C@H](C(=O)N[C@H](C(=O)N1CCC[C@H]1C(=O)N[C@@H](CO)C(=O)N[C@H](C(=O)N[C@@H](Cc1ccc(O)cc1)C(=O)N[C@@H](CS)C(=O)N[C@@H](CCCCN)C(=O)N[C@H](C(=O)N[C@H](C(=O)NCC(=O)O)[C@@H](C)O)C(C)C)C(C)C)C(C)C)C(C)C [Peptide 24] (H-GFIGKLASKVVPSVYCKVTG-OH; N-terminus and C-terminus assumed)		+ (MIC greater than 256 ug/mL)	MIC E. coli ([2]; 24 h): 128 µg/mL (≈ 62.3 µM)
LPVVFKIASKVVPSVISKIT [Peptide 83]	+ (MIC greater than 256 ug/mL)	+ (MIC greater than 256 ug/mL)	
CC[C@H](C)[C@H](NC(=O)[C@H](CC(=O)O)NC(=O)[C@H](CCCCN)NC(=O)[C@@H](NC(=O)[C@H](CC(C)C)NC(=O)[C@H](CO)NC(=O)[C@H](CCSC)NC(=O)[C@H](CC(C)C)NC(=O)CN)C(C)C)C(=O)N[C@@H](C)C(=O)N[C@@H](CCCCN)C(=O)N[C@@H](CC(C)C)C(=O)N[C@@H](C)C(=O)N[C@@H](C)C(=O)N[C@@H](CCCCN)C(=O)N[C@@H](CCC(N)=O)C(=O)NCC(=O)N[C@@H](C)C(=O)N[C@@H](CCCCN)C(=O)N[C@@H](CCC(N)=O)C(=O)O [Peptide 9] (H-GLMSLVKDIAKLAAKQGAKQ-OH; N-terminus and C-terminus assumed)		+ (MIC greater than 256 ug/mL)	MIC E. coli ([2]; 24 h): 256 µg/mL (≈ 124 µM)
CC[C@H](C)[C@H](NC(=O)[C@@H](NC(=O)[C@H](CCCCN)NC(=O)[C@H](C)NC(=O)[C@H](CC(C)C)NC(=O)[C@H](CCCCN)NC(=O)[C@H](CCCCN)NC(=O)CN)[C@@H](C)O)C(=O)N[C@@H](C)C(=O)N[C@@H](CCCCN)C(=O)N[C@@H](CCC(=O)O)C(=O)N[C@H](C(=O)N[C@@H](C)C(=O)N[C@@H](CCCCN)C(=O)N[C@@H](CCC(N)=O)C(=O)NCC(=O)N[C@@H](C)C(=O)N[C@@H](CCCCN)C(=O)N[C@@H](Cc1ccccc1)C(=O)N[C@@H](C)C(=O)O)C(C)C [Peptide 77] (H-GKKLAKTIAKEVAKQGAKFA-OH)	64 µg/mL (≈ 30.7 µM)		MIC B. cereus [3]: + (key: +: MIC greater than 256 ug/mL; ++: MIC greater than 128 ug/mL, not sufficiently soluble to test as 256 ug/mL)
GAVFGVASKVVPSVFSAIKK [Peptide 84]	+ (MIC greater than 256 ug/mL)	+ (MIC greater than 256 ug/mL)	
TLVGVVAKLVATKIGSSPRA [Shuffled 56]	+ (MIC greater than 256 ug/mL)	+ (MIC greater than 256 ug/mL)	
CC[C@H](C)[C@H](NC(=O)CN)C(=O)NCC(=O)N[C@@H](CCCCN)C(=O)N[C@@H](Cc1ccccc1)C(=O)N[C@@H](CC(C)C)C(=O)N[C@@H](Cc1c[nH]cn1)C(=O)N[C@@H](CO)C(=O)N[C@@H](C)C(=O)N[C@@H](CCCCN)C(=O)N[C@@H](CCCCN)C(=O)N[C@@H](Cc1ccccc1)C(=O)NCC(=O)N[C@@H](CCCCN)C(=O)N[C@@H](C)C(=O)N[C@@H](Cc1ccccc1)C(=O)N[C@H](C(=O)NCC(=O)N[C@@H](CCC(=O)O)C(=O)N[C@H](C(=O)N[C@@H](CCSC)C(=O)N[C@@H](CC(N)=O)C(=O)N[C@@H](CO)C(=O)O)[C@@H](C)CC)C(C)C [Magainin 2] (H-GIGKFLHSAKKFGKAFVGEIMNS-OH; N-terminus and C-terminus assumed)			MIC E. coli ([2]; 24 h): 64 µg/mL (≈ 25.9 µM); MIC B. cereus ([3]; 24 h): 256 µg/mL (≈ 104 µM)
LPVLFSSAIAKVGIKLGAKV [Shuffled 96]	+ (MIC greater than 256 ug/mL)	+ (MIC greater than 256 ug/mL)	
SKFPLAGIFSVPGVKRVVVI [Shuffled 75]	+ (MIC greater than 256 ug/mL)	+ (MIC greater than 256 ug/mL)	
LSAVGKIASKVVPSVIGAFK [Peptide 6]	+ (MIC greater than 256 ug/mL)	+ (MIC greater than 256 ug/mL)	
PKVVGLSIVVVKAKVSSALG [Shuffled 57]	+ (MIC greater than 256 ug/mL)	+ (MIC greater than 256 ug/mL)	
CC[C@H](C)[C@H](NC(=O)[C@H](CC(C)C)NC(=O)CNC(=O)[C@@H](NC(=O)[C@@H](NC(=O)[C@H](C)NC(=O)[C@@H]1CCCN1C(=O)[C@@H](NC(=O)[C@@H](NC(=O)[C@H](CCCCN)NC(=O)[C@H](CO)NC(=O)[C@H](C)NC(=O)[C@H](CC(C)C)NC(=O)[C@H](CO)NC(=O)[C@H](Cc1ccccc1)NC(=O)[C@H](CC(C)C)NC(=O)[C@H](C)NC(=O)CN)C(C)C)C(C)C)C(C)C)[C@@H](C)CC)C(=O)N[C@@H](CCCCN)C(=O)N[C@@H](CCCCN)C(=O)O [Peptide 96] (H-GALFSLASKVVPAVIGLIKK-OH; N-terminus and C-terminus assumed)	+ (MIC greater than 256 ug/mL)		MIC B. cereus ([3]; 24 h): 256 µg/mL (≈ 127 µM)
CC[C@H](C)[C@H](NC(=O)[C@@H](NC(=O)[C@H](CS)NC(=O)[C@H](Cc1ccc(O)cc1)NC(=O)[C@@H](NC(=O)[C@H](CO)NC(=O)[C@@H]1CCCN1C(=O)[C@@H](NC(=O)[C@@H](NC(=O)[C@H](CCCCN)NC(=O)[C@H](CO)NC(=O)[C@H](C)NC(=O)[C@H](CC(C)C)NC(=O)[C@H](CCCCN)NC(=O)[C@H](Cc1ccccc1)NC(=O)[C@@H](NC(=O)[C@@H](N)C(C)C)C(C)C)C(C)C)C(C)C)C(C)C)[C@@H](C)O)C(=O)N[C@H](C(=O)N[C@@H](CCCCN)C(=O)N[C@@H](CCCCN)C(=O)O)[C@@H](C)O [Peptide 88] (H-VVFKLASKVVPSVYCTITKK-OH; N-terminus and C-terminus assumed)		+ (MIC greater than 256 ug/mL)	MIC E. coli ([2]; 24 h): 256 µg/mL (≈ 116 µM)
CC[C@H](C)[C@H](NC(=O)[C@H](CC(C)C)NC(=O)[C@H](C)NC(=O)[C@@H]1CCCN1C(=O)[C@H](C)NC(=O)[C@@H](NC(=O)[C@H](CCCCN)NC(=O)[C@@H](N)CCCNC(=N)N)C(C)C)C(=O)N[C@@H](CCCCN)C(=O)N[C@@H](CO)C(=O)N[C@@H](Cc1ccccc1)C(=O)N[C@H](C(=O)N[C@@H](Cc1ccccc1)C(=O)N[C@@H](CC(C)C)C(=O)N[C@@H](Cc1ccccc1)C(=O)N[C@@H](CCCCN)C(=O)N[C@@H](Cc1ccccc1)C(=O)N[C@@H](CCCCN)C(=O)N[C@@H](CCCCN)C(=O)NCC(=O)O)C(C)C [Shuffled 51] (H-RKVAPALIKSFVFLFKFKKG-OH; N-terminus and C-terminus assumed)			MIC S. aureus ([1]; Smith Diffuse strain of): 128 µg/mL (≈ 55.1 µM); MIC B. anthracis [4]: 256 µg/mL (≈ 110 µM); MIC E. coli [2]: + (key: +: MIC greater than 256 ug/mL; ++: MIC greater than 128 ug/mL, not sufficiently soluble to test as 256 ug/mL)
VVAKKFFVLVKGLAPVLSPS [Shuffled 42]	+ (MIC greater than 256 ug/mL)	+ (MIC greater than 256 ug/mL)	
PSLLYKAKAVFCKPSAVAVF [Shuffled 62]	++ (MIC greater than 128 ug/mL, not sufficiently soluble to test as 256 ug/mL)	++ (MIC greater than 128 ug/mL, not sufficiently soluble to test as 256 ug/mL)	
ALFSLASKVVPSVFSMVTKK [Peptide 1]	+ (MIC greater than 256 ug/mL)	+ (MIC greater than 256 ug/mL)	
